Assay results published in ChEMBL document CHEMBL3585327 (Medchemcomm, 2014).

Experiments:
[1] = molecular target: T1, D(2) dopamine receptor (Homo sapiens, UniProt P14416); assay: Agonist activity at human dopamine D2L receptor expressed in CHO cell membranes after 1 hr by [35S]-GTPgammaS binding assay; assay type: functional
[2] = molecular target: T1, D(2) dopamine receptor; assay: Agonist activity at human dopamine D2L receptor expressed in CHO cell membranes after 1 hr by [35S]-GTPgammaS binding assay relative to 100 uM quinelorane; assay type: functional
[3] = molecular target: T1, D(2) dopamine receptor; assay: Potency index, ratio of quinelorane EC50 to compound EC50 for human dopamine D2L receptor expressed in CHO cell membranes; assay type: cell-based
[4] = molecular target: D(1A) dopamine receptor (Homo sapiens, UniProt P21728); assay: Binding affinity to human dopamine D1 receptor
[5] = molecular target: T1, D(2) dopamine receptor; assay: Binding affinity to human dopamine D2 receptor
[6] = molecular target: T2, D(4) dopamine receptor (Homo sapiens, UniProt P21917); assay: Binding affinity to human dopamine D4 receptor
T2 sequence (P21917 whole entry): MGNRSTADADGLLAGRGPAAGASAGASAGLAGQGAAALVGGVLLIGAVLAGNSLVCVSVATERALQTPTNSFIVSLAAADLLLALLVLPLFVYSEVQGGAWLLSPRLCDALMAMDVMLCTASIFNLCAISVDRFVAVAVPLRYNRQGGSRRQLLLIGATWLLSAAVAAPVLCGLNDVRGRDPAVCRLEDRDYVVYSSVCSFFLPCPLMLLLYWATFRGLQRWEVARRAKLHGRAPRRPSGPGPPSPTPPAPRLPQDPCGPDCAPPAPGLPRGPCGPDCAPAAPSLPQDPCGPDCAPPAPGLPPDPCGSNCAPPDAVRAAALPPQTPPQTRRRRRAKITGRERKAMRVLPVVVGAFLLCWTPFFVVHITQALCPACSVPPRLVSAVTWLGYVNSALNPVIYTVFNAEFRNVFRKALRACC

[7] = molecular target: D(1B) dopamine receptor (Homo sapiens, UniProt P21918); assay: Binding affinity to human dopamine D5 receptor
Sequence of D(1B) dopamine receptor (P21918 whole entry): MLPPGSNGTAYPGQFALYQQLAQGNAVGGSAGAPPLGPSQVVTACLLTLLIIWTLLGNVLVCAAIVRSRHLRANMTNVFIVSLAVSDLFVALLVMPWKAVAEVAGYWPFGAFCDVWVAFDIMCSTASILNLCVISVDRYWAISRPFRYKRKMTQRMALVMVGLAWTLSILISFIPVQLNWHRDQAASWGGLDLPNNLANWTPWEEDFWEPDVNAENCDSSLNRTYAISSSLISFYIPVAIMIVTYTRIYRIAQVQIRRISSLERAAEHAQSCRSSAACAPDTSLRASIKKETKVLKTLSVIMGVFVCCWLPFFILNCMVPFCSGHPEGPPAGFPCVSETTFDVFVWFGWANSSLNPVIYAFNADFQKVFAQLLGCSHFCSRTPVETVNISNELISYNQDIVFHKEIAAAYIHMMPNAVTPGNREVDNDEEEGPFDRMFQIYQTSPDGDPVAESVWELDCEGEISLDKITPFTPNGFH

T1 sequence (P14416 whole entry): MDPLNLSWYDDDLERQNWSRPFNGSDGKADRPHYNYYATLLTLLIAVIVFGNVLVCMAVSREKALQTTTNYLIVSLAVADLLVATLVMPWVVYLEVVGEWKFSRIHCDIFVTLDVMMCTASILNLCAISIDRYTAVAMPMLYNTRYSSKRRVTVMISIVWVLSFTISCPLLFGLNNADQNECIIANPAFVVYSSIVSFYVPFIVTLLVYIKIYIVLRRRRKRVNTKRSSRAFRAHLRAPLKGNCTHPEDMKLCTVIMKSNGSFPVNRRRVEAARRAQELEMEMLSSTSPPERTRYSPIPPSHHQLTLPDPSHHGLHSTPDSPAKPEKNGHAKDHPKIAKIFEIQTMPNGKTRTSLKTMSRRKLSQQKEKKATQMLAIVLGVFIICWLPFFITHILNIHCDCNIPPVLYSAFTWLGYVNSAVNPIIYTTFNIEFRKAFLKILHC
Sequence of D(1A) dopamine receptor (P21728 whole entry): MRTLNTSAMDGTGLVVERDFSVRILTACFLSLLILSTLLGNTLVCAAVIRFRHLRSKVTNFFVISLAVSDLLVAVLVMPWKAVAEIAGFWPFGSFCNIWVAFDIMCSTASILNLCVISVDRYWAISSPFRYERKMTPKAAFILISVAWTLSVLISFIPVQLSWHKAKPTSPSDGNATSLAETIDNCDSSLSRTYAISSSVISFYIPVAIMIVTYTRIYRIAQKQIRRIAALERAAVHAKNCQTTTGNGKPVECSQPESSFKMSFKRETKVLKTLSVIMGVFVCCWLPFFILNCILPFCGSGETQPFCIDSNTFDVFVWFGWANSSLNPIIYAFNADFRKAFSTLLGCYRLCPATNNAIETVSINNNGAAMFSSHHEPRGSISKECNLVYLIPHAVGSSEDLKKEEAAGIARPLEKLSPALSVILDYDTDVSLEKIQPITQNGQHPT

Compound	EC50 ([1]; read-out: EC50)	Emax [2]	also measured
CCCN(CCCNC(=O)OC(C)(C)C)CCc1cccc2c1CC(=O)N2CCCNC(=O)OC(C)(C)C	1410 nM	45%	EC50 ([1]; read-out: pEC50 (converted)): 1450 nM
CCCN(CCCNC(=O)CCC(=O)NCCCN(CCC)CCc1cccc2c1CC(=O)N2)CCc1cccc2c1CC(=O)N2	28 nM	94%	–
CCCN(CCCNC(=O)CCC(=O)O)CCc1cccc2c1CC(=O)N2	4680 nM	72%	–
CCCN(CCCNC(=O)CCCCCCCCCCCCCCC(=O)NCCCN(CCC)CCc1cccc2c1CC(=O)N2)CCc1cccc2c1CC(=O)N2	6.2 nM	85%	Ratio EC50 [3]: 3
CCCNCCc1cccc2c1CC(=O)N2	85 nM	92%	–
CCCN(CCC)CCc1cccc2c1CC(=O)N2 [ROPINIROLE]	–	–	Ki [4]: 32500 nM; Ki [5]: 3.7 nM; Ki [6]: 7.8 nM; Ki [7]: 41200 nM
CCCCCCCCCC(=O)NCCCN(CCC)CCc1cccc2c1CC(=O)N2	42 nM	78%	–
CCCN(CCCNC(=O)OC(C)(C)C)CCc1cccc2c1CC(=O)N2	219 nM	69%	–
CCCN(CCCNC(=O)CCCCCCCCCCCCCCCCCCC(=O)NCCCN(CCC)CCc1cccc2c1CC(=O)N2)CCc1cccc2c1CC(=O)N2	14 nM	58%	Ratio EC50 [3]: 3
CCCN(CCCNC(=O)CCCCCCC(=O)NCCCN(CCC)CCc1cccc2c1CC(=O)N2)CCc1cccc2c1CC(=O)N2	22 nM	99%	–
CCCN(CCCC(=O)OCC)CCc1cccc2c1CC(=O)N2	55 nM	90%	–
CCCN(CCCNC(=O)CCCCCCCCCCC(=O)NCCCN(CCC)CCc1cccc2c1CC(=O)N2)CCc1cccc2c1CC(=O)N2	3.9 nM	85%	Ratio EC50 [3]: 3
CCCN1CCC[C@@H]2Cc3nc(N)ncc3C[C@H]21 [QUINELORANE]	45 nM	–	–
